Counter-ions that a name gives are not always drawn.
Tests used:
[1] = molecular target: T1, human recombinant GABAAR containing α5β3γ2 subunits (benzodiazepine site) (Homo sapiens, UniProt P18507+P31644); assay: In vitro radioligand binding assay (α5-GABAAR Ki); conditions: inhibition of [3H]Ro15-1788 binding, membranes of L(tk−) cells expressing human α5β3γ2; read-out: α5-GABAAR Ki
T1 construct: expressed in transfected cells; host or cells: mouse L(tk−) cells, dexamethasone-inducible vector pMSGneo
T1 sequence (P31644 32-462): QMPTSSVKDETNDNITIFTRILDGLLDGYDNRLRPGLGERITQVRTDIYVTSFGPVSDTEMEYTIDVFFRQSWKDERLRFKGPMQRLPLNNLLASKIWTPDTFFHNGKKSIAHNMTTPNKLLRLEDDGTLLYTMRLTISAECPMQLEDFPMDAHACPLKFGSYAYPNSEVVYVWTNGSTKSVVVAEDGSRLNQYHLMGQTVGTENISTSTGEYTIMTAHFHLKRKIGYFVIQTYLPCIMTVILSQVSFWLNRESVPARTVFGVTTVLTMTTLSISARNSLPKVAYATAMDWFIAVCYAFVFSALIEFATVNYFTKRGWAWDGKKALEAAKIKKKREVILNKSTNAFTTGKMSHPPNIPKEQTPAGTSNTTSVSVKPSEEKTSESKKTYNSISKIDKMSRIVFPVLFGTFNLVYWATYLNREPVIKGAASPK
T1 sequence (P28472 26-473 partner): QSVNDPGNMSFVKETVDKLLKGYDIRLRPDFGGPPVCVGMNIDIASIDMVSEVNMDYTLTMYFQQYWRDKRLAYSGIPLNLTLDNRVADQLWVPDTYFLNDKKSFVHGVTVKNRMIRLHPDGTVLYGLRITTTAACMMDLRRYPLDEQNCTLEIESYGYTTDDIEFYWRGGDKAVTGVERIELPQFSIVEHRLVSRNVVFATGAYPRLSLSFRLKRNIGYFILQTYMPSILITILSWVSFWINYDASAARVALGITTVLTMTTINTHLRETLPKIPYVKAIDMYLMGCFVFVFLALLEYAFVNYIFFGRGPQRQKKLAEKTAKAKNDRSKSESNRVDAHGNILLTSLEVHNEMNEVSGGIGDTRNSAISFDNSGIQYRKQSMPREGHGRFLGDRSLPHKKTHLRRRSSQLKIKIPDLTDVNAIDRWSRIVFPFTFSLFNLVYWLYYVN
T1 sequence (P18507 40-475): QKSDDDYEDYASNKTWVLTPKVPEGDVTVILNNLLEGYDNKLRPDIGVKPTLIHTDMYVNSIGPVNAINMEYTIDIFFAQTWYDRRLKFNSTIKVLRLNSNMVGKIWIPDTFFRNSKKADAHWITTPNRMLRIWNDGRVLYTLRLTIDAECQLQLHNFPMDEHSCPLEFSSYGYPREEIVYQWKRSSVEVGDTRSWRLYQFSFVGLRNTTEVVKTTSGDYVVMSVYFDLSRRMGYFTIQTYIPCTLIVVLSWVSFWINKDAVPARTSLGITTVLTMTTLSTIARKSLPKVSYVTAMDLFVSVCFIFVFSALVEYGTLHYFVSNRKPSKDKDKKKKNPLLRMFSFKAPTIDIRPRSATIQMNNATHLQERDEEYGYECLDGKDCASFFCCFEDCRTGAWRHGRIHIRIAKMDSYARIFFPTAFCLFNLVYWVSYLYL
Procedure, shortened: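 Displacement of 4 nM [^3H]flumazenil from the benzodiazepine site, read by filtration and scintillation, gave IC50, converted to Ki (Cheng-Prusoff, saturation-derived Kd). Receptor: human α5β3γ2 membranes from L(tk^−) cells, 50 μg protein/well; 1 h, 4° C; TP003 1 μM defined nonspecific binding.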

[2] = molecular target: T2, human α5β3γ2 GABAARs in mouse L(tk−) cells (Homo sapiens, UniProt P18507+P31644); assay: In vitro electrophysiological recording assay (α5-GABAAR relative efficacy), QPatch; assay type: cell-based; conditions: GABA EC10-20
T2 construct: expressed in transfected cells; host or cells: mouse L(tk−) cells, dexamethasone-inducible vector pMSGneo
T2 sequence (P31644 32-462): as the sequence (P31644 32-462) above
T2 sequence (P28472 26-473 partner): as the sequence (P28472 26-473 partner) above
T2 sequence (P18507 40-475): as the sequence (P18507 40-475) above
From the text: Mouse L(tk^−) cells stably expressing human α1β3γ2, α2β3γ2, α3β3γ2, α5β3γ2 GABAARs generated by transfection of the individual subunits in the dexamethasone-inducible expression vector pMSGneo in mouse L(tk^−) cells (Hadingham et al., 1993, Mol. Pharmacol. 43:970-975 and 1993, Mol. Pharmacol. 44:1211-1218) were used for binding and functional assays. For certain compounds, HEK293 cells stable expressing the human α1β3γ2L, α2β3γ2L, α3β3γ2L and α5β3γ2L GABAA receptors were used to evaluate their functional effects in a SyncroPatch electrophysiology assay.
For QPatch electrophysiology testing, 1 μM dexamethasone was added to the culture medium of L(tk^−) cells 24 hours before the recordings were performed. Cells were typically used for electrophysiology experiments 72-96 hours after splitting.
The efficacy of modulators was evaluated using either the automated patch-clamp platform QPatch16 (Sophion, Copenhagen, Denmark) or the SyncroPatch 384i (Nanion Technologies, Germany). Cells were harvested from flasks by enzymatic dissociation and re-suspended in serum-free medium.
For QPatch recordings, all experiments were carried out at room temperature (20-22° C.) using a standard whole cell procedure and physiological solutions. Gigaseals were formed upon execution of a combined suction/voltage protocol with subsequent increased suction leading to the whole-cell configuration. The currents recorded were acquired at 1 KHz and filtered at 0.3 KHz using a Bessel filter. Whole-cell currents were measured at a holding potential of −65 mV.
For QPatch recordings, the extracellular solution contained of (in mM): 145 NaCl, 4 KCl, 1 MgCl2, 2CaCl2, 10 HEPES, 10 D-glucose (pH 7.4), and the intracellular solution consisted of (in mM): 96 KCl, 28 CsCl, 25 KOH, 4.3 CaCl2), 1.4 MgCl2, 10 EGTA, HEPES, 3 MgATP (pH 7.2). The osmolarities of the extracellular and intracellular solutions were 305 and 295 mOsm respectively.
The effects of modulators were evaluated in the presence of a submaximal GABA concentration, giving typically 10-20% activation (GABA EC10-20) of the response elicited by a saturating GABA concentration. For QPatch recordings, to check and ensure baseline current stability before compound addition, five consecutive applications of GABA EC10-20 alone (each application with a 2 s duration, separated by minimum 1 min wash off periods) were performed before compound addition. The test compound was applied using the pipetting system of the QPatch system 1 min at least prior to co-application with GABA EC10-20. For SyncroPatch recordings, GABA EC20 alone was applied three times (1 s long applications, with wash steps in-between) before compound addition. This was followed by a 1-2 min pre-incubation with the test compound and then re-application of GABA EC10-20 in the presence of the compound. Finally, following a further wash step, a saturating concentration of GABA was applied, allowing the accurate evaluation for each cell of the percentage baseline activation elicited by the submaximal GABA applied.
The compounds were first dissolved in DMSO as a 10 mM stock and then further diluted to the testing concentrations so that the final DMSO concentration in the extracellular recording solution was kept constant at 0.1% for the QPatch recordings, or 0.2% for the SyncroPatch recordings.
The % efficacy of modulators was determined from the GABA elicited currents recorded in the presence and absence of the test compound, using the formula:
[((compound peak current−leak)−(GABA peak current−leak))/(GABA peak current−leak)]*100,
where ‘leak’ is the leak baseline current at −65 mV, ‘compound peak current’ is the current elicited by co-application of compound and GABA, and ‘GABA peak current’ is the current elicited by GABA alone during the 5th GABA application. The results were presented as ‘relative efficacy’ for each compound generally at a concentration equal or higher than 100 times their determined Ki. […]

Compound	Ki [1]	α5-GABAAR Relative Efficacy (to DMCM), Qpatch ([2]; Conc 1 μM)	α5-GABAAR Relative Efficacy (to DMCM), Qpatch ([2]; Conc 3 μM)	α5-GABAAR Relative Efficacy (to DMCM), Qpatch ([2]; Conc 0.3 μM)	α5-GABAAR Relative Efficacy (to DMCM), Qpatch ([2]; Conc 0.1 μM)
COc1cc(-c2cncnc2)cnc1NC(=O)c1c(-c2ccccc2)noc1C [Example 9, N-(3-Methoxy-5-pyrimidin-5-yl-2-pyridyl)-5-methyl-3-phenyl-isoxazole-4-carboxamide]	3.2 nM	−0.21	–	–	–
COc1nc(-c2cnoc2)cnc1NC(=O)c1c(-c2ccccc2)noc1C [Example 120, N-(5-Isoxazol-4-yl-3-methoxy-pyrazin-2-yl)-5-methyl-3-phenyl-isoxazole-4-carboxamide]	4.6 nM	−0.73	–	–	–
COc1cc(-c2cnn(C)c2)cnc1NC(=O)c1c(-c2ccccc2)noc1C [Example 15, N-[3-Methoxy-5-(1-methylpyrazol-4-yl)-2-pyridyl]-5-methyl-3-phenyl-isoxazole-4-carboxamide]	7 nM	−0.19	–	–	–
COc1nc(-c2ccn3nc(N)nc3c2)ccc1NC(=O)c1c(-c2ccccc2)nnn1C [Example 174, N-(6-(2-Amino-[1,2,4]triazolo[1,5-a]pyridin-7-yl)-2-methoxypyridin-3-yl)-1-methyl-4-phenyl-1H-1,2,3-5-carboxamide]	1.4 nM	–	–	−0.84	–
COc1nc(-c2ccc(CO)nc2)ccc1NC(=O)c1c(C)nnn1-c1ccccc1 [Example 160, N-(6′-(Hydroxymethyl)-6-methoxy-[2,3′-bipyridin]-5-yl)-4-methyl-1-phenyl-1H-1,2,3-triazole-5-carboxamide]	28 nM	–	−0.77	–	–
COc1nc(-n2cnnc2)ccc1NC(=O)c1c(-c2ccccc2)noc1C [Example 62, N-[2-Methoxy-6-(1,2,4-triazol-4-yl)-3-pyridyl]-5-methyl-3-phenyl-isoxazole-4-carboxamide]	1.9 nM	–	–	−0.61	–
COc1nc(-c2cnoc2)ccc1NC(=O)c1c(C)nnn1-c1ccccc1 [Example 124, N-(6-(Isoxazol-4-yl)-2-methoxypyridin-3-yl)-4-methyl-1-phenyl-1H-1,2,3-triazole-5-carboxamide]	23.6 nM	–	−1.40	–	–
COc1nc(-n2cncc2CN(C)C)ccc1NC(=O)c1c(-c2ccccc2)noc1C [Example 153, N-[6-[5-[(Dimethylamino)methyl]imidazol-1-yl]-2-methoxy-3-pyridyl]-5-methyl-3-phenyl-isoxazole-4-carboxamide]	1.7 nM	–	–	−0.83	–
CNCCNC(=O)c1ncc(-c2ccc(NC(=O)c3c(-c4ccccc4)noc3C)c(OC)n2)cn1.Cl [Example 173, N-[2-Methoxy-6-[2-[2-(methylamino)ethylcarbamoyl]pyrimidin-5-yl]-3-pyridyl]-5-methyl-3-phenyl-isoxazole-4-carboxamide hydrochloride]	0.3 nM	–	–	–	−0.88
COc1nc(-c2cnc(N)cn2)cnc1NC(=O)c1c(-c2ccccc2)noc1C [Example 150, N-[5-(5-Aminopyrazin-2-yl)-3-methoxy-pyrazin-2-yl]-5-methyl-3-phenyl-isoxazole-4-carboxamide]	5.1 nM	−0.83	–	–	–
COc1nc(-c2ccn3nc(N)nc3c2)ccc1NC(=O)c1c(-c2ccccc2)noc1C.Cl [Example 61, N-[6-(2-Amino-[1,2,4]triazolo[1,5-a]pyridin-7-yl)-2-methoxy-3-pyridyl]-5-methyl-3-phenyl-isoxazole-4-carboxamide hydrochloride]	1.4 nM	–	–	−0.85	–

The next lines start with the values.

Ki [1]	α5-GABAAR Relative Efficacy (to DMCM), Qpatch ([2]; Conc 1 μM)	α5-GABAAR Relative Efficacy (to DMCM), Qpatch ([2]; Conc 3 μM)	α5-GABAAR Relative Efficacy (to DMCM), Qpatch ([2]; Conc 0.3 μM)	α5-GABAAR Relative Efficacy (to DMCM), Qpatch ([2]; Conc 0.1 μM)	Compound
7.9 nM	−0.65	–	–	–	COc1nc(-c2ccnc(N(C)C)c2)ccc1NC(=O)c1c(-c2ccccc2)noc1C [Example 82, N-(2′-(Dimethylamino)-6-methoxy-[2,4′-bipyridin]-5-yl)-5-methyl-3-phenyl-isoxazole-4-carboxamide]
17.5 nM	–	−0.69	–	–	COc1nc(-c2ncn3c2CN(C)CC3)ccc1NC(=O)c1c(-c2ccccc2)noc1C [Example 186, N-(2-Methoxy-6-(7-methyl-5,6,7,8-tetrahydroimidazol[1,5-a]pyrazin-1-yl)pyridin-3-yl)-5-methyl-3-phenylisoxazole-4-carboxamide]
2.8 nM	–	–	−0.56	–	COc1nc(-c2cccnc2)ccc1NC(=O)c1c(-c2ccccc2)noc1C [Example 37, N-(6-Methoxy-[2,3′-bipyridin]-5-yl)-5-methyl-3-phenylisoxazole-4-carboxamide]
3.2 nM	−0.65	–	–	–	COc1nc(-c2ccncc2N)ccc1NC(=O)c1c(-c2ccccc2)noc1C [Example 86, N-(3′-Amino-6-methoxy-[2,4′-bipyridin]-5-yl)-5-methyl-3-phenylisoxazole-4-carboxamide]
1.8 nM	–	–	−0.87	–	COc1ncc(-c2ccc(NC(=O)c3c(-c4ccccc4)noc3C)c(OC)n2)cn1 [Example 41, N-(2-Methoxy-6-(2-methoxypyrimidin-5-yl)pyridin-3-yl)-5-methyl-3-phenyl-isoxazole-4-carboxamide]
0.6 nM	–	–	–	−0.92	CNC(=O)c1ncc(-c2ccc(NC(=O)c3c(-c4ccccc4)noc3C)c(OC)n2)cn1 [Example 75, N-[2-Methoxy-6-[2-(methylcarbamoyl)pyrimidin-5-yl]-3-pyridyl]-5-methyl-3-phenyl-isoxazole-4-carboxamide]
7.9 nM	−0.83	–	–	–	COc1nc(-c2ccc3[nH]nnc3c2)ccc1NC(=O)c1c(-c2ccccc2)noc1C [Example 49, N-[6-(1H-Benzotriazol-5-yl)-2-methoxy-3-pyridyl]-5-methyl-3-phenyl-isoxazole-4-carboxamide]
23.5 nM	–	−0.46	–	–	COc1nc(-c2ncn3c2CNCC3)ccc1NC(=O)c1c(-c2ccccc2)noc1C [Example 187, N-(2-Methoxy-6-(5,6,7,8-tetrahydroimidazo[1,5-a]pyrazin-1-yl)pyridin-3-yl)-5-methyl-3-phenylisoxazole-4-carboxamide dihydrochloride]
6.7 nM	−0.70	–	–	–	COc1nc(-c2ccc(N3CC[C@@H](O)C3)nc2)ccc1NC(=O)c1c(-c2ccccc2)noc1C [Example 99, (R)—N-(6′-(3-Hydroxypyrrolidin-1-yl)-6-methoxy-[2,3′-bipyridin]-5-yl)-5-methyl-3-phenylisoxazole-4-carboxamide]
0.2 nM	–	–	–	−0.80	COc1nc(-c2cnc(C(=O)NCCN(C)C)nc2)ccc1NC(=O)c1c(-c2ccccc2)noc1C [Example 172, N-[6-[2-[2-(Dimethylamino)ethylcarbamoyl]pyrimidin-5-yl]-2-methoxy-3-pyridyl]-5-methyl-3-phenyl-isoxazole-4-carboxamide]
